The text below walks through data of patent US6964959B2, “Use of a methylol-containing compound to treat tumors” (Carter Wallace, Inc., priority 1999, dated 2005).

One experiment concerns PA-1. Description: Cell growth inhibition, PA-1 ovarian tumor cells. The class given is cell-based. Particulars: Homo sapiens, PA-1, 72 h, PA-1 (ovary); 3 d exposure; cell number. The procedure:
One ml of this cell suspension was added to each well of a 12 well cell culture plate that contained 3 ml of appropriate media plus serum. […] Control wells received 40 μl of 5% Kollidon 17PF alone. Seventy-two hours later, all cells were harvested by trypsinization and cell number determined electronically using a Coulter Model Z1 particle counter (Coulter Corp., Miami, Fla.) to assess cell growth inhibition. Each experiment was performed in duplicate and repeated a minimum of three times.
Cells were seeded at a density of 1-5×10^4 cells in each well of a 6 well tissue culture flask. […] After three days, cells were harvested by trypsinization and cell number determined electronically. Cell growth inhibition was determined by comparison to non-Taurolidine exposed control cultures. The IC50 was calculated as the concentration required to inhibit cell number by 50%.

The subject of a further experiment is human cancer cell lines. Description: Growth inhibition of human cancer cell lines, 3-day exposure. The class given is cell-based. Conditions: 72 h, read-out: concentration required to inhibit tumor cell growth (IC50). On the procedure: Parallel studies were carried out to assess whether disruption of cell adhesion played a role in the cytotoxic activity.

SMILES strings stand for the structures.

Consider `O=S1(=O)CCN(CN2CCS(=O)(=O)NC2)CN1` [Taurolidine, Bis-(1,1-dioxoperhydro-1,2,4-thiadiazinyl-4)methane], for which the IC50 with PA-1 is roughly 10 µM; in the experiment with human cancer cell lines, 12.5 to 50 µM.
